Assay results as given in paper PMC4350841 (2015).

Tests used:
[1] = system: U-deletion gRNA/pre-mRNA hybrid RNA (pre-cleaved) (RNA, duplex, 3'-end amino modification in two of the oligoribonucleotides used (which ones stated only in S1 Table)) GGAAAGGGAAAGUUGUGAUUUU/GCGAGUUAUAGAAUA/GGUUCUAUAACUCGCUCACAACUUUCCCUUUCC; experiment: circular dichroism titration, 273 nm; details: Na+ (65 mM NaCl, 10 mM Na cacodylate); pH 6.8, 27°C; 12 μM RNA; neomycin up to 0.6 mM; A-form retained
[2] = system: U-deletion gRNA/pre-mRNA hybrid RNA (pre-cleaved) (RNA, duplex, 3'-end amino modification in two of the oligoribonucleotides used (which ones stated only in S1 Table)) GGAAAGGGAAAGUUGUGAUUUU/GCGAGUUAUAGAAUA/GGUUCUAUAACUCGCUCACAACUUUCCCUUUCC; experiment: UV melting, 260 nm; details: Na+ (5 mM Na cacodylate; NaCl not stated); pH 6.8; 1 μM RNA; neomycin 1.3 μM or 13 μM; two helices; 11–13 over both RNAs
[3] = system: U-insertion gRNA/pre-mRNA hybrid RNA (pre-cleaved) (RNA, duplex, 3'-end amino modification in two of the oligoribonucleotides used (which ones stated only in S1 Table)) GGAAGUAUGAGACGUAGG/AUUGGAGUUAUAG/CUAUAACUCCGAUAAACCUACGUCUCAUACUUCC; experiment: circular dichroism titration, 273 nm; details: Na+ (65 mM NaCl, 10 mM Na cacodylate); pH 6.8, 27°C; 12 μM RNA; neomycin up to 0.6 mM; A-form retained
[4] = system: U-deletion gRNA/pre-mRNA hybrid RNA (pre-cleaved) (RNA, duplex, 3'-end amino modification in two of the oligoribonucleotides used (which ones stated only in S1 Table)) GGAAAGGGAAAGUUGUGAUUUU/GCGAGUUAUAGAAUA/GGUUCUAUAACUCGCUCACAACUUUCCCUUUCC; experiment: isothermal titration calorimetry; details: 30 mM KCl, 10 mM Mg(OAc)2; 20 mM HEPES/KOH pH 7.5, 0.5 mM DTT, 27°C; 2 μM RNA; macroscopic, 3 sites
[5] = system: U-insertion gRNA/pre-mRNA hybrid RNA (pre-cleaved) (RNA, duplex, 3'-end amino modification in two of the oligoribonucleotides used (which ones stated only in S1 Table)) GGAAGUAUGAGACGUAGG/AUUGGAGUUAUAG/CUAUAACUCCGAUAAACCUACGUCUCAUACUUCC; experiment: isothermal titration calorimetry; details: 30 mM KCl, 10 mM Mg(OAc)2; 20 mM HEPES/KOH pH 7.5, 0.5 mM DTT, 27°C; 2 μM RNA; macroscopic, 3 sites
[6] = system: U-insertion gRNA/pre-mRNA hybrid RNA (pre-cleaved) (RNA, duplex, 3'-end amino modification in two of the oligoribonucleotides used (which ones stated only in S1 Table)) GGAAGUAUGAGACGUAGG/AUUGGAGUUAUAG/CUAUAACUCCGAUAAACCUACGUCUCAUACUUCC; experiment: UV melting, 260 nm; details: Na+ (5 mM Na cacodylate; NaCl not stated); pH 6.8; 1 μM RNA; neomycin 1.3 μM or 13 μM; two helices; 11–13 over both RNAs

NC[C@@H]1O[C@H](O[C@H]2[C@@H](O)[C@H](O[C@@H]3[C@@H](O)[C@H](N)C[C@H](N)[C@H]3O[C@H]3O[C@H](CN)[C@@H](O)[C@H](O)[C@H]3N)O[C@@H]2CO)[C@H](N)[C@@H](O)[C@@H]1O
binding [1]: yes | binding [2]: yes | binding [3]: yes | Kd [4]: 1000 nM | Kd [5]: 1100 nM | binding [6]: yes
